Values after ≈ are worked out from the molar mass of the structure shown.
How the values were obtained:
Type in all cases: cell-based
Klebsiella pneumoniae [1] = test: MIC against standard strain, plate method; settings: unit assumed
Description: (§1) The minimum inhibitory concentrations (MIC) was determined by the plate method disclosed in "Chemotherapy" (Japan), Vol. 16, (1968), pages 98 - 99. The culture medium used was a Heart infusion agar (pH 7.4). The number of the cells per plate used in the inoculum as 10^4 (10^6 cells/ml).

[2] = system: Pseudomonas aeruginosa I.F.O.; test: MIC against standard strain, plate method; settings: unit assumed
Description: as §1

Escherichia coli NIHJ = test: MIC against standard strain, plate method; settings: unit assumed
Description: as §1

[3] = system: Staphylococcus aureus 209p; test: MIC against standard strain, plate method; settings: unit assumed
Description: as §1

Proteus vulgaris 3027 = test: MIC against standard strain, plate method; settings: Proteus vulgaris 3027, standard strain; unit assumed
Description: as §1

Pseudomonas aeruginosa = test: MIC against clinical isolates; settings: unit assumed
Staphylococcus aureus = test: MIC against clinical isolates; settings: unit assumed
Escherichia coli = test: MIC against clinical isolates; settings: unit assumed
Klebsiella pneumoniae [4] = test: MIC against clinical isolates; settings: unit assumed

O=C(Cc1cccs1)N[C@@H]1C(=O)N2C(C(=O)[O-])=C(C[n+]3ccccc3)CS[C@H]12 [Cephaloridine, reference compound]
MIC (Klebsiella pneumoniae [1]): 200 µg/mL (≈ 481 µM) | MIC [2]: 200 µg/mL (≈ 481 µM) | MIC (Escherichia coli NIHJ): > 3.13 µg/mL | MIC [3]: < 1.57 µg/mL

CN1CCN(C(=O)NC(C(=O)NC2C(=O)N3C2SC(C)(C)C3C(=O)O)C2=CCC=CC2)C(=O)C1=O (centres unmarked) [compound 57]
MIC (Klebsiella pneumoniae [1]): 12.5 µg/mL (≈ 24.7 µM) | MIC [2]: 12.5 µg/mL (≈ 24.7 µM) | MIC (Proteus vulgaris 3027): 3.13 µg/mL (≈ 6.19 µM) | MIC (Escherichia coli NIHJ): < 0.79 µg/mL | MIC [3]: < 0.79 µg/mL

CC1(C)S[C@@H]2[C@H](NC(=O)[C@H](NC(=O)N3CCN(C(=O)Nc4ccccc4)C(=O)C3)c3ccccc3)C(=O)N2[C@H]1C(=O)O [compound 33]
MIC (Klebsiella pneumoniae [1]): 6.25 µg/mL (≈ 10.5 µM) | MIC [2]: 50 µg/mL (≈ 84.1 µM) | MIC (Proteus vulgaris 3027): 3.13 µg/mL (≈ 5.26 µM) | MIC (Escherichia coli NIHJ): < 1.57 µg/mL | MIC [3]: < 1.57 µg/mL

CC1(C)S[C@@H]2[C@H](NC(=O)[C@H](NC(=O)N3CCN(C(=O)C4CCCCC4)CC3=O)c3ccccc3)C(=O)N2[C@H]1C(=O)O [compound 3]
MIC (Klebsiella pneumoniae [1]): 3.13 µg/mL (≈ 5.34 µM) | MIC [2]: 100 µg/mL (≈ 171 µM) | MIC (Proteus vulgaris 3027): 3.13 µg/mL (≈ 5.34 µM) | MIC (Escherichia coli NIHJ): < 1.57 µg/mL | MIC [3]: < 1.57 µg/mL

C=CCN1CCN(C(=O)N[C@@H](C(=O)N[C@@H]2C(=O)N3[C@@H]2SC(C)(C)[C@@H]3C(=O)O)c2ccccc2)CC1=O [compound 25]
MIC (Klebsiella pneumoniae [1]): 50 µg/mL (≈ 97 µM) | MIC [2]: 25 µg/mL (≈ 48.5 µM) | MIC (Proteus vulgaris 3027): 3.13 µg/mL (≈ 6.07 µM) | MIC (Escherichia coli NIHJ): < 1.57 µg/mL | MIC [3]: < 1.57 µg/mL

C=CCN1CCN(C(=O)N[C@@H](C(=O)N[C@@H]2C(=O)N3[C@@H]2SC(C)(C)[C@@H]3C(=O)O)c2ccccc2)C(=O)C1=O (single isomer, unassigned) [compound 42]
MIC (Klebsiella pneumoniae [1]): 6.25 µg/mL (≈ 11.8 µM) | MIC [2]: 12.5 µg/mL (≈ 23.6 µM) | MIC (Proteus vulgaris 3027): < 1.57 µg/mL | MIC (Escherichia coli NIHJ): < 1.57 µg/mL | MIC [3]: 1.57 µg/mL (≈ 2.96 µM)

CC1(C)S[C@@H]2[C@H](NC(=O)[C@H](NC(=O)N3CC(=O)N(Cc4ccccc4)CC3=O)c3ccccc3)C(=O)N2[C@H]1C(=O)O [compound 35]
MIC (Klebsiella pneumoniae [1]): 25 µg/mL (≈ 43.1 µM) | MIC [2]: 100 µg/mL (≈ 173 µM) | MIC (Proteus vulgaris 3027): 25 µg/mL (≈ 43.1 µM) | MIC (Escherichia coli NIHJ): 6.25 µg/mL (≈ 10.8 µM) | MIC [3]: 1.57 µg/mL (≈ 2.71 µM)

CC1(C)S[C@@H]2[C@H](NC(=O)[C@H](NC(=O)N3CCN(C(=O)c4ccc(Cl)cc4)CC3=O)c3ccccc3)C(=O)N2[C@H]1C(=O)O [compound 8]
MIC (Klebsiella pneumoniae [1]): 6.25 µg/mL (≈ 10.2 µM) | MIC (Escherichia coli NIHJ): < 1.57 µg/mL | MIC [3]: < 1.57 µg/mL

CC(=O)NC(=O)N1CCN(C(=O)N[C@@H](C(=O)N[C@@H]2C(=O)N3[C@@H]2SC(C)(C)[C@@H]3C(=O)O)c2ccccc2)C(=O)C1 [compound 11]
MIC (Klebsiella pneumoniae [1]): 50 µg/mL (≈ 89.2 µM) | MIC [2]: 50 µg/mL (≈ 89.2 µM) | MIC (Proteus vulgaris 3027): 6.25 µg/mL (≈ 11.1 µM) | MIC (Escherichia coli NIHJ): < 1.57 µg/mL | MIC [3]: < 1.57 µg/mL

CCOC(=O)N1CCN(C(=O)N[C@@H](C(=O)N[C@@H]2C(=O)N3[C@@H]2SC(C)(C)[C@@H]3C(=O)O)c2ccccc2)C(=O)C1 [compound 12]
MIC (Klebsiella pneumoniae [1]): 6.25 µg/mL (≈ 11.4 µM) | MIC [2]: 50 µg/mL (≈ 91.3 µM) | MIC (Proteus vulgaris 3027): 12.5 µg/mL (≈ 22.8 µM) | MIC (Escherichia coli NIHJ): 3.13 µg/mL (≈ 5.72 µM) | MIC [3]: < 1.57 µg/mL

C/C=C/CN1CCN(C(=O)N[C@@H](C(=O)N[C@@H]2C(=O)N3[C@@H]2SC(C)(C)[C@@H]3C(=O)O)c2ccccc2)CC1=O [compound 28]
MIC (Klebsiella pneumoniae [1]): 25 µg/mL (≈ 47.2 µM) | MIC [2]: 25 µg/mL (≈ 47.2 µM) | MIC (Proteus vulgaris 3027): 3.13 µg/mL (≈ 5.91 µM) | MIC (Escherichia coli NIHJ): < 1.57 µg/mL | MIC [3]: < 1.57 µg/mL

CC1(C)S[C@@H]2[C@H](NC(=O)[C@H](NC(=O)N3CCN(c4ccccc4)C(=O)C3=O)c3ccccc3)C(=O)N2[C@H]1C(=O)O (single isomer, unassigned) [compound 43]
MIC (Klebsiella pneumoniae [1]): 1.57 µg/mL (≈ 2.78 µM) | MIC [2]: 6.25 µg/mL (≈ 11.1 µM) | MIC (Proteus vulgaris 3027): < 1.57 µg/mL | MIC (Escherichia coli NIHJ): < 1.57 µg/mL | MIC [3]: < 1.57 µg/mL

CC1(C)S[C@@H]2[C@H](NC(=O)[C@H](NC(=O)N3CCN(C(=O)c4ccccc4)CC3=O)c3ccccc3)C(=O)N2[C@H]1C(=O)O [compound 7]
MIC (Klebsiella pneumoniae [1]): 12.5 µg/mL (≈ 21.6 µM) | MIC [2]: 200 µg/mL (≈ 345 µM) | MIC (Proteus vulgaris 3027): 6.25 µg/mL (≈ 10.8 µM) | MIC (Escherichia coli NIHJ): < 1.57 µg/mL | MIC [3]: < 1.57 µg/mL

O=C(Cc1cccs1)N[C@@H]1C(=O)N2C(C(=O)[O-])=C(C[n+]3ccccc3)CS[C@H]12 [Cephalorizine, reference compound]
MIC (Pseudomonas aeruginosa; clinical isolate GN 82): > 200 µg/mL | MIC (Pseudomonas aeruginosa; clinical isolate GN 163): > 200 µg/mL | MIC (Pseudomonas aeruginosa; clinical isolate GN 221): > 200 µg/mL | MIC (Pseudomonas aeruginosa; clinical isolate GN 244): > 200 µg/mL | MIC (Pseudomonas aeruginosa; clinical isolate GN 376): > 200 µg/mL | MIC (Pseudomonas aeruginosa; clinical isolate GN 383): > 200 µg/mL | MIC (Pseudomonas aeruginosa; clinical isolate GN 1035): > 200 µg/mL | MIC (Pseudomonas aeruginosa; clinical isolate GN 1091): > 200 µg/mL | MIC (Pseudomonas aeruginosa; clinical isolate GN 2565): > 200 µg/mL | MIC (Pseudomonas aeruginosa; clinical isolate GN 2987): > 200 µg/mL | MIC (Pseudomonas aeruginosa; clinical isolate S-1): > 200 µg/mL | MIC (Pseudomonas aeruginosa; clinical isolate S-2): > 200 µg/mL | MIC (Pseudomonas aeruginosa; clinical isolate S-3): > 200 µg/mL | MIC (Pseudomonas aeruginosa; clinical isolate S-4): > 200 µg/mL | MIC (Staphylococcus aureus; clinical isolate F-1): < 0.4 µg/mL | MIC (Staphylococcus aureus; clinical isolate F-2): < 0.4 µg/mL | MIC (Staphylococcus aureus; clinical isolate F-3): < 0.4 µg/mL | MIC (Staphylococcus aureus; clinical isolate F-4): < 0.4 µg/mL | MIC (Staphylococcus aureus; clinical isolate F-5): 0.78 µg/mL (≈ 1.88 µM) | MIC (Staphylococcus aureus; clinical isolate MS 8588): < 0.4 µg/mL | MIC (Staphylococcus aureus; clinical isolate MS 8596): < 0.4 µg/mL | MIC (Staphylococcus aureus; clinical isolate MS 8619): < 0.4 µg/mL | MIC (Staphylococcus aureus; clinical isolate MS 8684): < 0.4 µg/mL | MIC (Staphylococcus aureus; clinical isolate MS 8713): < 0.4 µg/mL | MIC (Escherichia coli; clinical isolate GN 3435): 3.13 µg/mL (≈ 7.53 µM) | MIC (Escherichia coli; clinical isolate GN 3452): 3.13 µg/mL (≈ 7.53 µM) | MIC (Escherichia coli; clinical isolate GN 3465): 50 µg/mL (≈ 120 µM) | MIC (Escherichia coli; clinical isolate GN 3481): 3.13 µg/mL (≈ 7.53 µM) | MIC (Escherichia coli; clinical isolate GN 3611): 100 µg/mL (≈ 241 µM) | MIC (Escherichia coli; clinical isolate K-1): 3.13 µg/mL (≈ 7.53 µM) | MIC (Escherichia coli; clinical isolate K-2): 3.13 µg/mL (≈ 7.53 µM) | MIC (Escherichia coli; clinical isolate K-3): 200 µg/mL (≈ 481 µM) | MIC (Escherichia coli; clinical isolate K-4): 6.25 µg/mL (≈ 15 µM) | MIC (Klebsiella pneumoniae [4]; clinical isolate GN 917): 3.13 µg/mL (≈ 7.53 µM) | MIC (Klebsiella pneumoniae [4]; clinical isolate GN 4081): 12.5 µg/mL (≈ 30.1 µM) | MIC (Klebsiella pneumoniae [4]; clinical isolate GN 4117): 12.5 µg/mL (≈ 30.1 µM)
